Patent US6610681B1, “Neurotherapeutic clavulanate composition and method” (Revaax Pharmaceuticals, LLC, priority 1999, dated 2003)

What was measured:
[1] = test system: male Syrian golden hamsters; assay: golden hamster seed finding model of anxiety; format: in vivo, Mesocricetus auratus
Source text: Clavulanic acid (CLAV) is structurally similar to the beta-lactam antibiotics. A most robust and simple bioassay for screening beta-lactams for CNS activity is the golden hamster seed finding model of anxiety. Briefly, hamsters are deprived of food overnight. The following day they are exposed to the additional stress of being taken from their home cage and placed in a novel environment for a few minutes. This manipulation stimulates the release of the stress hormone cortisol (FIG. 13). During their absence from the home cage, sunflower seeds are hidden under the bedding in one of the corners. When returned to the home cage, hamsters routinely scramble along the walls for 1-2 min before settling down, locating and eating the seeds. However, animals treated with the benzodiazepine anxiolytic chlordiazepoxide find seeds in less than 10 sec.
Male, Syrian golden hamsters (Mesocricetus auratus) (120-130 g) obtained from Harlan Sprague-Dawley Laboratories (Indianapolis, Ind.) were housed individually in Plexiglas cages (24 cm×24 cm×20 cm), maintained on a reverse light:dark cycle (14L: 10D; lights on at 19:00 hr) and provided food and water ad libitum. A range of concentrations of CLAV (saline vehicle, 0.1, 1.0, 10, 100 1,000 ng/kg) were tested in six groups of hamsters (4-8/group)(FIG. 1). All tests were conducted during the dark phase of the circadian cycle under dim red illumination. Prior to testing all animals were fasted for 20-24 hrs. Ninety min after intraperitoneal (IP) injection of drug, animals were taken from their home cage and placed into a holding cage for 2 min. During their absence, six sunflower seeds were buried under the bedding in one corner of their home cage. Animals were placed back into their home cage randomly facing any one of the empty corners and timed for their latency to find the seeds in a five min observation period. Latency times were analyzed with a one-way ANOVA followed by Scheffe's post hoc tests. Assumption of equal variances was tested (Hartley's F-max=2.1 p>0.05)
It was hypothesized that CLAV functioned as an anxiolytic in the seed finding assay by blocking NAALADase activity in the brain. If this notion were true then it would be predicted that drugs known to block NAALADase should also enhance seed finding. To this end, animals were treated with N-acetyl-beta-aspartyl-glutamic acid (beta-NAAG), a competitive inhibitor of NAALADase (Serval et al., 1992) and tested in the seed finding model of anxiety. The study was similar to that outlined in Section I with one notable exception. […] Beta-NAAG (FW 304) was given in a dose of 3 ng in a volume of 1 μl saline ICV. The average adult hamster brain weights ca. 1.2 g of which 22% is extracellular fluid. The estimated beta-NAAG concentration was 11 ng/ml or 36 nM.
Two groups of six animals each were fasted overnight as previously described and tested the following day. One group was treated with beta-NAAG and the other saline vehicle and one hr later timed for latency to find the hidden sunflower seeds. A Student t-test for unpaired data was used for statistical comparisons.

male Wistar rats = conditions: 10-25 mg/kg, literature; cited from earlier work
[2] = in vivo; cited from earlier work
male golden hamsters = assay: resident/intruder paradigm of offensive aggression; format: in vivo, hamster; conditions: 3 ng ICV, after the seed finding assay
Source text: Agonistic behavior can be classified as either offensive or defensive aggression (Blanchard and Blanchard, 1977; Adams, […]; Albert and Walsh, 1984). Offensive aggression is characterized by an aggressor initiating an attack on an opponent; while, defensive aggression lacks active approach. Both types of aggression have their own unique neurobehavioral systems. The stimuli that elicit offensive and defense attack are different, as are the sequences of behaviors that accompany each agonistic response. […] Offensive aggression is easily studied using male golden hamsters tested in a resident/intruder paradigm, an established model of offensive aggression (Ferris and Potegal 1988) in the context of defending the home burrow. Placing an unfamiliar male hamster into the home cage of another male hamster elicits a well-defined sequence of agonistic behaviors from the resident that includes offensive aggression.
Hamsters are nocturnal and as such all behavioral tests were performed during the first four hrs of the dark phase under dim red illumination. The resident was scored for offensive aggression, e.g., latency to bite the intruder, the total number of bites, total contact time with the intruder and flank marking over a 10 min test period (Ferris and Potegal, 1988). Flank marking is a form of olfactory communication in which a hamsters arches its back and rubs pheromone producing flank glands against objects in the environment (Johnston, 1986).
Five male golden hamsters (130-140 g) were given IP injections of CLAV (200 μg/kg) and saline vehicle in a volume of ca. 0.2 ml. […] Vehicle and CLAV treatments were counter balanced and randomized so all five animals received each treatment separated by at least 48 hrs. Animals were tested 90 min after treatment over a 10 min observation period. Latencies and contact time were analyzed with a two-way ANOVA. Non-parametric data, i.e., number of bites and flank marks were analyzed by Wilcoxon matched-pairs signed-ranks test.
The animals tested in this study were those used in Section IX. After the seed finding assay, beta-NAAG (n=6) and saline vehicle (n=6) treated animals remained in their home cage and were presented with a smaller, male intruder. The resident was scored for latency to bite, bites, contact time and flank marking over a 10 min observation period. Latency to bite and contact time between treatments were compared with Student t-tests. Non-parametric measures of bites and flank marks for beta-NAAG vs vehicle were compared with Mann-Whitney.

[3] = test system: neurogenic peptidases (e.g., NAALADases); assay: delivery of peptide directly into the brain, behavior; format: in vivo; conditions: effective amounts directly into the brain

CNC1=Nc2ccc(Cl)cc2C(c2ccccc2)=[N+]([O-])C1 [CDP, Chlordiazepoxide]
seed finding time ([1]; benzodiazepine anxiolytic, dose not given): less than 10 sec
motor activity (male Wistar rats): depresses motor activity

CC(=O)N[C@@H](CC(=O)N[C@@H](CCC(=O)O)C(=O)O)C(=O)O [beta-NAAG, N-acetyl-beta-aspartyl-glutamic acid]
passage of the blood-brain barrier [2]: does not readily cross the blood-brain barrier
difference in latency to find the seeds vs saline vehicle ([1]; 3 ng in 1 μl ICV, one hr): significantly (p<0.001) different
measures of offensive aggression (latency to bite, bites, contact time, flank marking) vs vehicle (male golden hamsters): no significant differences

Ala-D-γ-Glu-Lys-D-alanyl-D-alanine
behavioral characteristics compared with β-lactam compounds [3]: produced the same modified behavioral characteristics
